Source: ChEMBL document CHEMBL5104166, “Lead optimization of cathepsin K inhibitors for the treatment of Osteoarthritis” (Bioorg Med Chem Lett, 2022)

How the values were obtained:
[1] = Intrinsic clearance in rat liver microsomes; format: ADME, Microsome; conditions: read-out: CLH
Canis familiaris [2] = assay: Anti-osteoarthritic activity in dog assessed as reduction in uCTX-1 level at 0.3 mg/kg, po for 4 days (reference value: 26.9%); format: functional; conditions: Canis lupus familiaris, 96 h, time 4 day
Homo sapiens = species on record: Homo sapiens; assay: Selectivity ratio of IC50 for Cathepsin F (unknown origin) to IC50 for Cathepsin K (unknown origin)
Canis familiaris [3] = assay: Anti-osteoarthritic activity in dog assessed as reduction in uCTX-1 level at 0.1 mg/kg, po for 4 days (reference value: 26.9%); format: functional; conditions: Canis lupus familiaris, 96 h, time 4 day
Canis familiaris [4] = assay: Anti-osteoarthritic activity in dog assessed as reduction in uCTX-1 level at 15 mg/kg, po for 4 days (reference value: 26.9%); format: functional; conditions: Canis lupus familiaris, 96 h, time 4 day
[5] = Oral bioavailability in rat; format: ADME, organism-based; conditions: in vivo
[6] = biological target: Cathepsin (V and K) (Homo sapiens) (UniProt P43235+O60911); assay: Selectivity ratio of IC50 for Cathepsin V (unknown origin) to IC50 for Cathepsin K (unknown origin); format: protein assay
[7] = Unbound plasma concentration in dog at 15 mg/kg, po for 4 days; format: ADME, organism-based, Canis lupus familiaris; conditions: in vivo, 96 h, time 4 day
[8] = biological target: Cathepsin (L and K) (Homo sapiens) (UniProt P43235+P07711); assay: Selectivity ratio of IC50 for Cathepsin L (unknown origin) to IC50 for Cathepsin K (unknown origin); format: protein assay
Cathepsin K [9] = biological target: T1, Cathepsin K (Homo sapiens, UniProt P43235); assay: Inhibition of human Cathepsin K
T1 sequence (P43235 whole entry): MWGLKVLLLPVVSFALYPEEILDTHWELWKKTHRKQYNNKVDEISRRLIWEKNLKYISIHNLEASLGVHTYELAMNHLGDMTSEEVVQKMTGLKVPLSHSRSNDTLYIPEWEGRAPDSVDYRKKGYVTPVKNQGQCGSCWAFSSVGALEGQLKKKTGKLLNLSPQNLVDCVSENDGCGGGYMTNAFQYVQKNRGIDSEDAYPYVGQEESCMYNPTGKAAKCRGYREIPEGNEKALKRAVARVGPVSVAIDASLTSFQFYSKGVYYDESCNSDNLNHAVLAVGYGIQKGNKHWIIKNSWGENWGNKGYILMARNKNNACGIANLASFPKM

[10] = Half life in rat; format: ADME; conditions: in vivo
[11] = Drug concentration in dog cartilage at 15 mg/kg, po for 4 days; format: ADME, organism-based, Canis lupus familiaris, Cartilage tissue; conditions: time 4 day, read-out: Ct
[12] = Clearance in rat; format: ADME; conditions: in vivo
Canis familiaris [13] = assay: Anti-osteoarthritic activity in dog assessed as reduction in uCTX-1 level at 0.03 mg/kg, po for 4 days (reference value: 26.9%); format: functional; conditions: Canis lupus familiaris, 96 h, time 4 day
[14] = Oral bioavailability in rhesus monkey; format: ADME, organism-based, Macaca mulatta; conditions: in vivo
[15] = Unbound drug concentration in dog cartilage at 15 mg/kg, po for 4 days; format: ADME, organism-based, Canis lupus familiaris, Cartilage tissue; conditions: in vivo, 96 h, time 4 day
[16] = biological target: Cathepsin (S and K) (Homo sapiens) (UniProt P25774+P43235); assay: Selectivity ratio of IC50 for Cathepsin S (unknown origin) to IC50 for Cathepsin K (unknown origin); format: protein assay
[17] = Plasma protein binding in dog assessed as unbound fraction at 15 mg/kg, po for 4 days; format: ADME, organism-based, Canis lupus familiaris; conditions: time 4 day
[18] = Half life in dog; format: ADME, Canis lupus familiaris; conditions: in vivo
[19] = Oral bioavailability in dog; format: ADME, organism-based, Canis lupus familiaris; conditions: in vivo
[20] = Clearance in rhesus monkey; format: ADME, Macaca mulatta; conditions: in vivo
[21] = Half life in rhesus monkey; format: ADME, Macaca mulatta; conditions: in vivo
[22] = biological target: Cathepsin (B and K) (Homo sapiens) (UniProt P43235+P07858); assay: Selectivity ratio of IC50 for Cathepsin B (unknown origin) to IC50 for Cathepsin K (unknown origin); format: protein assay
[23] = Clearance in dog; format: ADME, Canis lupus familiaris; conditions: in vivo
[24] = Plasma concentration in dog at 15 mg/kg, po for 4 days; format: ADME, organism-based, Canis lupus familiaris; conditions: time 4 day
Cathepsin K [25] = biological target: Cathepsin K (Homo sapiens, UniProt P43235); assay: Inhibition of humanized-rabbit Cathepsin K

Cathepsin (L and K) (Homo sapiens), sequence (P07711 whole entry, looked up, one chain of several): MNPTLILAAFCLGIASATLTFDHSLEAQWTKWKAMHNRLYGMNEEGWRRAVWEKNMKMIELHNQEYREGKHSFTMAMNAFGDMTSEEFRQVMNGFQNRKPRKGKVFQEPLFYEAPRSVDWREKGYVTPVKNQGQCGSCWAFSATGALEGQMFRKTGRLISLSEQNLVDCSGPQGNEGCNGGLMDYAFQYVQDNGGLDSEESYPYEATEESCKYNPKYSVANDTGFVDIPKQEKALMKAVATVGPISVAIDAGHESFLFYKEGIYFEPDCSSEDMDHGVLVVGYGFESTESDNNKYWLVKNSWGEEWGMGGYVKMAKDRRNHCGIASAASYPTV
Cathepsin (S and K) (Homo sapiens), sequence (P25774 whole entry, looked up, one chain of several): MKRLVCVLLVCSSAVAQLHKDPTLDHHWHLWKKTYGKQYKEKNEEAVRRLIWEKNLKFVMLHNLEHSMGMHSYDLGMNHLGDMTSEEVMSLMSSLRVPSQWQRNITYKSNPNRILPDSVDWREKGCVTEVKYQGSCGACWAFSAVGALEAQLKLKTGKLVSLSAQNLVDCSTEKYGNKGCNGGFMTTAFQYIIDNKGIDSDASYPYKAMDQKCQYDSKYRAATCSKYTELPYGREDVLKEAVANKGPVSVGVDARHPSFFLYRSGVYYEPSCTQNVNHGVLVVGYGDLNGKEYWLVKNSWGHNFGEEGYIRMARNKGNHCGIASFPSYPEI
Cathepsin (V and K) (Homo sapiens), sequence (O60911 whole entry, looked up, one chain of several): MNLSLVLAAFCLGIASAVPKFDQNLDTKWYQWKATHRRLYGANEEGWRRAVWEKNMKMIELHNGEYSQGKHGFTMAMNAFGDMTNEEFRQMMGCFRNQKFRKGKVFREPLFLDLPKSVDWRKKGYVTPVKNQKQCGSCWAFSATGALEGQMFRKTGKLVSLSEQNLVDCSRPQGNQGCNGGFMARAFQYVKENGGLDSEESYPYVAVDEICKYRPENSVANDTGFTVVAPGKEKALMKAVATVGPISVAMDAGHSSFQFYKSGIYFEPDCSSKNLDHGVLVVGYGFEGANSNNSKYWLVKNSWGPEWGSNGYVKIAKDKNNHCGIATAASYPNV

N#CC1(NC(=O)[C@@H]2CCCC[C@H]2c2oc(-c3ccc(F)cc3)nc2-c2ccc(N3CCS(=O)(=O)CC3)cc2)CC1
CLint scaled [1]: < 30 mL/min/kg | inhibition in vivo at 0.3 mg/kg (Canis familiaris [2]): 81.1% | Ratio IC50 (Homo sapiens): 1460 | inhibition in vivo at 0.1 mg/kg (Canis familiaris [3]): 47.7% | inhibition in vivo at 15 mg/kg (Canis familiaris [4]): 91.4% | bioavailability [5]: 33% | Ratio IC50 [6]: > 20000 | Cp(f) [7]: 190 nM | Ratio IC50 [8]: > 20000 | IC50 (Cathepsin K [9]): 0.5 nM | half-life [10]: 1.5 h | concentration at 96 h [11]: 220 nM | clearance [12]: 13 mL/min/kg | inhibition in vivo at 0.03 mg/kg (Canis familiaris [13]): 4.5% | bioavailability [14]: 55% | Drug uptake(free) [15]: 0.21 µM | Ratio IC50 [16]: > 20000 | fraction unbound at 96 h [17]: 0.047 | half-life [18]: 4.1 h | bioavailability [19]: 38% | clearance [20]: 18.5 mL/min/kg | half-life [21]: 2.3 h | Ratio IC50 [22]: > 20000 | clearance [23]: 3.1 mL/min/kg | concentration at 96 h [24]: 3980 nM

N#CC1(NC(=O)[C@@H]2CC(Cl)(Cl)CC[C@H]2c2nn(CC(F)(F)F)cc2-c2ccc(N3CCS(=O)(=O)CC3)cc2)CC1
IC50 (Cathepsin K [25]): 0.5 nM | Ratio IC50 (Homo sapiens): 314

N#CC1(NC(=O)[C@@H]2CC(F)(F)CC[C@H]2c2nn(-c3ccc(F)cc3)cc2-c2ccc(N3CCS(=O)(=O)CC3)cc2)CC1
CLint scaled [1]: < 30 mL/min/kg | IC50 (Cathepsin K [25]): 0.5 nM | Ratio IC50 (Homo sapiens): 50

COc1cccc(-n2cc(-c3ccc(N4CCS(=O)(=O)CC4)cc3)c([C@@H]3CCCC[C@H]3C(=O)NC3(C#N)CC3)n2)c1
CLint scaled [1]: 244 mL/min/kg | Ratio IC50 (Homo sapiens): 716 | IC50 (Cathepsin K [9]): 0.7 nM

N#CC1(NC(=O)[C@@H]2CCCC[C@H]2c2nn(CC3CC3)cc2-c2ccc(N3CCS(=O)(=O)CC3)cc2)CC1
Ratio IC50 (Homo sapiens): 1180 | IC50 (Cathepsin K [9]): 5.3 nM

N#CC1(NC(=O)[C@@H]2CC(F)(F)CC[C@H]2c2nn(CC(F)(F)F)cc2-c2ccc(-c3ncco3)cc2)CC1
IC50 (Cathepsin K [25]): 1 nM | Ratio IC50 (Homo sapiens): 62

N#CC1(NC(=O)[C@@H]2CCCC[C@H]2c2nc(-c3ccc(F)cc3)sc2-c2ccc(N3CCS(=O)(=O)CC3)cc2)CC1
CLint scaled [1]: 55.9 mL/min/kg | Ratio IC50 (Homo sapiens): 1430 | IC50 (Cathepsin K [9]): 0.6 nM

N#CC1(NC(=O)[C@@H]2CCCC[C@H]2c2nn(-c3ccc(F)cc3)cc2-c2ccc(N3CCS(=O)(=O)CC3)cc2)CC1
CLint scaled [1]: 40.5 mL/min/kg | Ratio IC50 (Homo sapiens): 1000 | IC50 (Cathepsin K [9]): 0.5 nM

CS(=O)(=O)N1CC(c2ccc(-c3cn(CC(F)(F)F)nc3[C@@H]3CCC(F)(F)C[C@H]3C(=O)NC3(C#N)CC3)cc2)C1
IC50 (Cathepsin K [25]): 0.6 nM | Ratio IC50 (Homo sapiens): 82

N#CC1(NC(=O)[C@@H]2CCCC[C@H]2c2nn(CC(F)(F)F)cc2-c2ccc(N3CCS(=O)(=O)CC3)cc2)CC1
Ratio IC50 (Homo sapiens): 1280 | IC50 (Cathepsin K [9]): 6.9 nM

N#CC1(NC(=O)[C@@H]2CC(Cl)(Cl)CC[C@H]2c2nn(CC(F)(F)F)cc2-c2ccc(C(=O)N3CCOCC3)cc2)CC1
IC50 (Cathepsin K [25]): 1 nM | Ratio IC50 (Homo sapiens): 246

CS(=O)(=O)c1ccc(-c2cn(CC(F)(F)F)nc2[C@@H]2CCC(Cl)(Cl)C[C@H]2C(=O)NC2(C#N)CC2)cc1
Ratio IC50 (Homo sapiens): 40 | Ratio IC50 [6]: 714 | Ratio IC50 [8]: 1710 | IC50 (Cathepsin K [9]): 1.8 nM | Ratio IC50 [16]: 1360 | Ratio IC50 [22]: 5560

N#CC1(NC(=O)[C@@H]2CC(F)(F)CC[C@H]2c2nn(CC(F)(F)F)cc2-c2ccc(N3CCS(=O)(=O)CC3)cc2)CC1
Ratio IC50 (Homo sapiens): 380 | IC50 (Cathepsin K [9]): 0.7 nM
